Reference: ChEMBL document CHEMBL1201862, “PubChem BioAssay data set” (2004)
Active and inactive are the calls of the source.

Key:
[1] = target: Lysine-specific demethylase 4C (Homo sapiens, UniProt Q9H3R0); experiment: GASC-1 (JMJD2C) histone demethylase inhibitors, dose response, biochemical, DELFIA europium, cherry-picked samples (AID 488835); format: functional
[2] = target: UDP-galactopyranose mutase (Mycobacterium tuberculosis, UniProt P9WIQ1); experiment: Inhibitors of Mycobacterium tuberculosis UDP-galactopyranose mutase (UGM) enzyme Measured in Biochemical System Using Plate Reader - 2105-02_Inhibitor_Dose_CherryPick_Activity. [Related pubchem assays (depositor defined):AID504439]
[3] = target: G-protein coupled receptor 55 (Homo sapiens, UniProt Q9Y2T6); experiment: GPR55 antagonists, SAR follow-up, counter-screen for GPR35 antagonist project, imaging, image-based (AID 2397); format: functional
[4] = target: Tyrosine-protein phosphatase non-receptor type 12 (Homo sapiens, UniProt Q05209); experiment: SAR Selectivity Analysis of small molecule inhibitors of PEST using pCAP in a fluorescence assay. [Related pubchem assays (depositor defined):AID1779, AID1784, AID2135]; format: functional
[5] = target: T1, Tyrosine-protein phosphatase non-receptor type 7 (Homo sapiens, UniProt P35236); experiment: HePTP (PTPN7) phosphatase inhibitor potency, SAR follow-up, biochemical, set 2 (AID 449736); format: functional
T1 sequence (P35236 whole entry): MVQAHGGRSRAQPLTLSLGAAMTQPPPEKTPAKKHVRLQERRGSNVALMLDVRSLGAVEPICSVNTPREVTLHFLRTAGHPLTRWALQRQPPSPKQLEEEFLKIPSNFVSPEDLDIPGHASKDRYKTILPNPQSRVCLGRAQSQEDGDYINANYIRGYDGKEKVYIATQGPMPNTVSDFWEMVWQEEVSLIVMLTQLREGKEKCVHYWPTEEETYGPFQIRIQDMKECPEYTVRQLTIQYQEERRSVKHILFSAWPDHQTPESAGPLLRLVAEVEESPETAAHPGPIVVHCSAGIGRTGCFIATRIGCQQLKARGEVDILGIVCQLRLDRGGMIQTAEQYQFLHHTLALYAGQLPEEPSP

[6] = target: 26S proteasome non-ATPase regulatory subunit 14 (Homo sapiens, UniProt O00487); experiment: inhibition of proteasome subunit RPN11 – biochemical, fluorescence polarization, uHTS hits, confirmation (AID 602368); format: functional
[7] = target: T2, G-protein coupled receptor 35 (Homo sapiens, UniProt Q9HC97); experiment: GPR35 antagonists blocking zaprinast-driven arrestin recruitment, primary screen, imaging, U2OS, beta-arrestin-GFP, zaprinast agonist (AID 2058); format: functional;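 also: antagonist potency meaning inhibition of agonist-induced arrestin redistribution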
[8] = target: T2, G-protein coupled receptor 35; experiment: SAR Analysis for the identification of Selective Antagonists of ERK1/2 Activity in GPR35-Overexpressing U2OS Cells. [Related pubchem assays: 2079, 2058 ]; format: functional, cell-based
[9] = target: 72 kDa type IV collagenase (Homo sapiens, UniProt P08253); experiment: Dose Response validation of uHTS RPN11 inhibitor hits using a MMP-2 Fluorescence assay.; format: functional
[10] = target: T3, Tyrosine-protein phosphatase non-receptor type 22 (Homo sapiens, UniProt Q9Y2R2); experiment: LYP (PTPN22) phosphatase inhibitor potency, SAR follow-up, biochemical, pCAP fluorogenic substrate, fluorescence, set 3 (AID 449727); format: functional
T3 sequence (Q9Y2R2 whole entry): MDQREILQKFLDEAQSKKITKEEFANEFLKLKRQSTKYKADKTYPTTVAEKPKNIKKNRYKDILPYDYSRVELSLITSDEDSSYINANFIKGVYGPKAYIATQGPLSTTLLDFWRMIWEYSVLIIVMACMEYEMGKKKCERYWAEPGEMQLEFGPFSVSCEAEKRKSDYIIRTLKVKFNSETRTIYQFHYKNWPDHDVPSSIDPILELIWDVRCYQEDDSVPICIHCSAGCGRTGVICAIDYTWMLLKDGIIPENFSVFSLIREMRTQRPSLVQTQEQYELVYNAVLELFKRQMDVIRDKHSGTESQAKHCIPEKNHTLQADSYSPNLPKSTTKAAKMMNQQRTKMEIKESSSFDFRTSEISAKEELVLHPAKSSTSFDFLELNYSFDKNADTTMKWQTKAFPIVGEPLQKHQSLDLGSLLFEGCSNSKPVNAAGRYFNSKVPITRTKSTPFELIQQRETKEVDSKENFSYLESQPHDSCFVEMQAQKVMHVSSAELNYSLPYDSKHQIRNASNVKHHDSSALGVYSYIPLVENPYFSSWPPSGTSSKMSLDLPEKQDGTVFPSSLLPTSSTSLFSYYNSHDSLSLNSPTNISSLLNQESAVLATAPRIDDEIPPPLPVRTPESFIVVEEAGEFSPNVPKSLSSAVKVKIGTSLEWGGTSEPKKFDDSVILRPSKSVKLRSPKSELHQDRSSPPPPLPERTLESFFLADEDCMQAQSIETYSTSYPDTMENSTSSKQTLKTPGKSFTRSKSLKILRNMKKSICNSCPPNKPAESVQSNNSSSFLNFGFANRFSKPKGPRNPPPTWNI

Prothrombin = Prothrombin (Bos taurus, UniProt P00735); experiment: thrombin inhibition, dose response, biochemical, fluorescence polarization, uHTS hits (AID 602369); format: functional
[11] = target: T3, Tyrosine-protein phosphatase non-receptor type 22; experiment: SAR LYP1 Fluorescent Assay using OMFP substrate for In Vitro dose response studies - Set 3. [Related pubchem assays (depositor defined):AID1779, AID1784, AID2140, AID2686]; format: functional
Phosphomannomutase 2 = Phosphomannomutase 2 (Homo sapiens, UniProt O15305); experiment: Counter screen SAR assay for PMM2 inhibitors via a fluorescence intensity assay. [Related pubchem assays (depositor defined):AID1545, AID1574]
[12] = target: T4, Mannose-6-phosphate isomerase (Homo sapiens, UniProt P34949); experiment: PMI enzyme inhibitors, confirmation, biochemical, fluorescence intensity (AID 1535)
T4 sequence (P34949 whole entry): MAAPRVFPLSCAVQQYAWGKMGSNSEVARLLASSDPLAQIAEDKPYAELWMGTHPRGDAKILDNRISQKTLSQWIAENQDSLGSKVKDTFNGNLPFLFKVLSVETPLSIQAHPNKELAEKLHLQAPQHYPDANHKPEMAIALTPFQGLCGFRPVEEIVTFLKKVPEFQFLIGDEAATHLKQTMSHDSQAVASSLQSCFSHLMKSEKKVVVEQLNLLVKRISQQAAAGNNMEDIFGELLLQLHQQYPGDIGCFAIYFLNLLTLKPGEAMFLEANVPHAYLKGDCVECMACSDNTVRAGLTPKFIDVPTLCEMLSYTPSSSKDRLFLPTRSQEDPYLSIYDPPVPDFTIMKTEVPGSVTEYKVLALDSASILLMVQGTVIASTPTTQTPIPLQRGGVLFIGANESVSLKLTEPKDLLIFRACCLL

[13] = Luminescence Cell-Based Dose Retest to Confirm Inhibitors of Cancer Stem Cells. [Related pubchem assays (depositor defined):AID2717, AID2721]; format: functional; conditions: Homo sapiens
[14] = cytotoxicity in HMLE control line with eGFP shRNA, dose response, counter-screen for HMLE_sh_ECad selective toxicity project, cell-based, HMLE_sh_eGFP, luminescence (AID 463074); format: functional, Homo sapiens;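 also: HMLE human mammary epithelial cells expressing control shRNA against eGFP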

T2 sequence (Q9HC97 whole entry): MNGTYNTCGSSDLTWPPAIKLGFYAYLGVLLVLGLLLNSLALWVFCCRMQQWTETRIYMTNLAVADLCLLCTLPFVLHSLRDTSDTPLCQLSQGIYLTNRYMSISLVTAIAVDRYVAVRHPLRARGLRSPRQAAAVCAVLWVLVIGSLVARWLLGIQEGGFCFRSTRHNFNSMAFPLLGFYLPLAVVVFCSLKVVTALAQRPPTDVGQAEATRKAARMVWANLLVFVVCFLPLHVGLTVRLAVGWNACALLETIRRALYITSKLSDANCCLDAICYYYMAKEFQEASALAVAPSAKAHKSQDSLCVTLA
Chain of 72 kDa type IV collagenase (P08253 whole entry): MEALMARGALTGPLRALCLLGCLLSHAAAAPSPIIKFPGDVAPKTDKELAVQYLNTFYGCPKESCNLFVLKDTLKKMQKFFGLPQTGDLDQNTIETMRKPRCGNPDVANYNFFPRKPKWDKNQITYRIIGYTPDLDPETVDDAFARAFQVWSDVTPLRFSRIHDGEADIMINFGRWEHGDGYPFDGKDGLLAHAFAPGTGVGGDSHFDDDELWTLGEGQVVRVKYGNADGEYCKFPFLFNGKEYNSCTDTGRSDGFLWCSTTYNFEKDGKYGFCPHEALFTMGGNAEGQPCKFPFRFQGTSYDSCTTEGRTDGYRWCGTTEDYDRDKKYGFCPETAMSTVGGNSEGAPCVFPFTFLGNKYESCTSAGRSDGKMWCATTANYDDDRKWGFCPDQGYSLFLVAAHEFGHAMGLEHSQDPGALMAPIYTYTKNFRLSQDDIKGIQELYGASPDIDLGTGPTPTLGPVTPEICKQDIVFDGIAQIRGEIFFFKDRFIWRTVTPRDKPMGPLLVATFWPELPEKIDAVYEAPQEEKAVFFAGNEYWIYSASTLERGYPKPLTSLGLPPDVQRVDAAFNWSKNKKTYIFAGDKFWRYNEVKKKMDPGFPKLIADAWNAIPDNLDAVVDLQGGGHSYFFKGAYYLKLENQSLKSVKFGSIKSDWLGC
Chain of UDP-galactopyranose mutase (P9WIQ1 whole entry): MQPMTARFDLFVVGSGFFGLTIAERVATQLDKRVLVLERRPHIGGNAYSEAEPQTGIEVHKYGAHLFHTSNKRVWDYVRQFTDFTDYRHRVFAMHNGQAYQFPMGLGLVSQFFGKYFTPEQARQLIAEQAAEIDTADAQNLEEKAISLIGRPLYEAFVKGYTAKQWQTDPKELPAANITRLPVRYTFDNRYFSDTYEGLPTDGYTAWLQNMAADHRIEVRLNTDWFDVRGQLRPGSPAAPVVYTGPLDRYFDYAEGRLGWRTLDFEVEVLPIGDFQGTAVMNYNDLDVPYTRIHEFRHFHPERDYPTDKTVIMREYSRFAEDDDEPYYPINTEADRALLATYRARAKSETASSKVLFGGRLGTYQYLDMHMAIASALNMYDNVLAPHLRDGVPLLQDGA
Chain of Tyrosine-protein phosphatase non-receptor type 12 (Q05209 whole entry): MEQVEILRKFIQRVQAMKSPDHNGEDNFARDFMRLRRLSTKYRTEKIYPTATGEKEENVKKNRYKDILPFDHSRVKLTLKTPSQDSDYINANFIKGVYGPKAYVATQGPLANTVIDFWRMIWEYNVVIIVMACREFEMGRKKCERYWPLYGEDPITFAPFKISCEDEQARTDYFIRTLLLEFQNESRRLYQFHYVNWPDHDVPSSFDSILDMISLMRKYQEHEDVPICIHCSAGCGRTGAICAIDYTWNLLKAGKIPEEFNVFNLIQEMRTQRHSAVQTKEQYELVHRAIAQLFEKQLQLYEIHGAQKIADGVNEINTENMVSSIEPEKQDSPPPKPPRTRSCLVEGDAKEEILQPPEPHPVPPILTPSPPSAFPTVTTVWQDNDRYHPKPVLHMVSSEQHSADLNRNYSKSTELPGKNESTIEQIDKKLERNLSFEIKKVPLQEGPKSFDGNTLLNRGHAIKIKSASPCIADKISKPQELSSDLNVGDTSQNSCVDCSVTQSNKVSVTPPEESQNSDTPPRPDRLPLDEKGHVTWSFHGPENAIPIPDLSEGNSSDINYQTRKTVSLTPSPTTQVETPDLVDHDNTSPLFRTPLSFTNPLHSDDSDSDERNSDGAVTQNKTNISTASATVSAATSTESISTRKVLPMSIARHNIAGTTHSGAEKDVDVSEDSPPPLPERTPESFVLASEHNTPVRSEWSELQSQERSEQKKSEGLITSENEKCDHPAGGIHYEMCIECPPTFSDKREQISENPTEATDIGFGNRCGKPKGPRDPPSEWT
Chain of G-protein coupled receptor 55 (Q9Y2T6 whole entry): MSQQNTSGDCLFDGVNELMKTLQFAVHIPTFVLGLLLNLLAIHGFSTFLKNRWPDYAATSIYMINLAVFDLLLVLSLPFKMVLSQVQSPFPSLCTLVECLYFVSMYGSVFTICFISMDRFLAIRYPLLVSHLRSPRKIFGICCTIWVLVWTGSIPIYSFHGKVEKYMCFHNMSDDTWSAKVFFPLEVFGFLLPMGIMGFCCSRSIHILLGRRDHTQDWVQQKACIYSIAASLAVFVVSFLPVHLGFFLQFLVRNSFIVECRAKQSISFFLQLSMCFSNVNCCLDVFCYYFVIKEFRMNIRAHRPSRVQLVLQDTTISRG
Chain of Lysine-specific demethylase 4C (Q9H3R0 whole entry): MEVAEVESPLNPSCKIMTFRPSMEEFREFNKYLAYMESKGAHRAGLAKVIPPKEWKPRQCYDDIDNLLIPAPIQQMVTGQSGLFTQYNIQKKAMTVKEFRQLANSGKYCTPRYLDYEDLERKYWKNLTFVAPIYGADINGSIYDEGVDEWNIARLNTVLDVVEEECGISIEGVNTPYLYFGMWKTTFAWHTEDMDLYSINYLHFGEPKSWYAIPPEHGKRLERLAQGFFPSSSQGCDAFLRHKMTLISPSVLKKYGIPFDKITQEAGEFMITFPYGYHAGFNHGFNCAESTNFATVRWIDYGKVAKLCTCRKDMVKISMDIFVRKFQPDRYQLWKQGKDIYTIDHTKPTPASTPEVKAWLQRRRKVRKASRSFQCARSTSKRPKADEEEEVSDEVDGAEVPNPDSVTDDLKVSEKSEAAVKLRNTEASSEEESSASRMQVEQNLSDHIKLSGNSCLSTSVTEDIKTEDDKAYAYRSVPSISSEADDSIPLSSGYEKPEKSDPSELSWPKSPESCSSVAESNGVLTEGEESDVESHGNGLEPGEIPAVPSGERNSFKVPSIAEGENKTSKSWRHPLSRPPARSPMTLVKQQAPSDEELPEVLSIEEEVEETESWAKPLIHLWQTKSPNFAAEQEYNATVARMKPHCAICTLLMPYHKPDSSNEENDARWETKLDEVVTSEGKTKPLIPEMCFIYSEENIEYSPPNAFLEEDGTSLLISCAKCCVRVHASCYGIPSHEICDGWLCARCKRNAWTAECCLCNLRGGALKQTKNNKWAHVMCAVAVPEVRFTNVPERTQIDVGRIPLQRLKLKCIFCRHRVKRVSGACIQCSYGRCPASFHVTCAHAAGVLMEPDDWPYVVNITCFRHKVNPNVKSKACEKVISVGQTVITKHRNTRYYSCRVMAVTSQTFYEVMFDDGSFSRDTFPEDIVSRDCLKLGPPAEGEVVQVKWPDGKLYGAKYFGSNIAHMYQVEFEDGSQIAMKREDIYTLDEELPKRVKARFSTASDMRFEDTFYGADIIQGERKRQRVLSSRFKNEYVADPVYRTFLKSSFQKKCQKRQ
Chain of Phosphomannomutase 2 (O15305 whole entry): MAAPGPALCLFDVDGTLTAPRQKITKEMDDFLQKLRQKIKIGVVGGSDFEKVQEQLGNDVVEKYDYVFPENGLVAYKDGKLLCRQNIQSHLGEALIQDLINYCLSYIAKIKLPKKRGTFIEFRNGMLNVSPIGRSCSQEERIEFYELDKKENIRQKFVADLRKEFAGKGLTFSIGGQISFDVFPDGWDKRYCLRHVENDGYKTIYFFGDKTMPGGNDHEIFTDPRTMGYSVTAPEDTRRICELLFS
Chain of 26S proteasome non-ATPase regulatory subunit 14 (O00487 whole entry): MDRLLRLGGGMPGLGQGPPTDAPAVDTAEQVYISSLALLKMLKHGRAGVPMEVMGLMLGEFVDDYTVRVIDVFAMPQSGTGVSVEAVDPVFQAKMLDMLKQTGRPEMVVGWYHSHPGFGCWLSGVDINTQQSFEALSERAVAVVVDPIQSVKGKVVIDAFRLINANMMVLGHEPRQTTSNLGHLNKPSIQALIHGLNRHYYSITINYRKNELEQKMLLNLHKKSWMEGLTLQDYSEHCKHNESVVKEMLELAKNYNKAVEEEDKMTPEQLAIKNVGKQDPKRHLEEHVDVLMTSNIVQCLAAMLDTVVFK

SMILES: c1cc2c(cc1-c1csc(NNC3=NCCCCC3)n1)OCCO2
- AC50 [1]: 17 µM (active)

SMILES: O=C(NCc1ccc(F)cc1)c1cccc2c1C(=O)c1ccc(N3CCC(Cc4ccccc4)CC3)cc1S2(=O)=O
- AC50 [2]: 5.84 µM (active)

SMILES: O=C(CCCN1C(=O)/C(=C/c2ccc3c(c2)OCO3)SC1=S)Nc1ccc(C(=O)O)cc1
- IC50 [3]: 20 µM (inactive)
- IC50 [4]: 12.1 µM (active)
- IC50 [5]: 1.99 µM (active)
- IC50 [6]: 40.7 µM (active)
- IC50 [7]: 0.563 µM (active)
- IC50 [8]: 4.07 µM (active)
- IC50 [9]: 43 µM (active)
- IC50 [10]: 47 µM (active)
- IC50 (Prothrombin): 38.9 µM (active)
- IC50 [11]: 91.4 µM (active)

SMILES: COc1cc([N+](=O)[O-])ccc1/N=c1\ssnc1Cl
- IC50 (Phosphomannomutase 2): > 100 µM (inactive)
- IC50 [12]: 3.25 µM (active)

SMILES: CN1CCN(/N=C/c2ccc(OCc3ccccc3)cc2)CC1
- AC50 [13]: 5.25 µM (active)
- AC50 [14]: 56 µM (active)
